Our source for the S, IC50 and solubility values is ChEMBL document CHEMBL1131301, “Tyrosine kinase inhibitors. 14. Structure-activity relationships for methylamino-substituted derivatives of 4-[(3-bromophenyl)amino]-6-(methylamino)-pyrido[3,4-d]pyrimidine (PD 158780), a potent and specific inhibitor of the tyrosine kinase activity of receptors for the EGF family of growth factors” (J Med Chem, 1998).

Series [1] can be described thus: Aqueous solubility ([…] degree C). In kind it is physicochemical. Conditions: for S: buffer; for solubility: water, read-out: S.
In series [2] the target is T1, Epidermal growth factor receptor (Homo sapiens, UniProt P00533). Kind of series: Inhibition of autophosphorylation of epidermal growth factor receptor in A431 cells in culture.
T1 sequence (P00533 whole entry): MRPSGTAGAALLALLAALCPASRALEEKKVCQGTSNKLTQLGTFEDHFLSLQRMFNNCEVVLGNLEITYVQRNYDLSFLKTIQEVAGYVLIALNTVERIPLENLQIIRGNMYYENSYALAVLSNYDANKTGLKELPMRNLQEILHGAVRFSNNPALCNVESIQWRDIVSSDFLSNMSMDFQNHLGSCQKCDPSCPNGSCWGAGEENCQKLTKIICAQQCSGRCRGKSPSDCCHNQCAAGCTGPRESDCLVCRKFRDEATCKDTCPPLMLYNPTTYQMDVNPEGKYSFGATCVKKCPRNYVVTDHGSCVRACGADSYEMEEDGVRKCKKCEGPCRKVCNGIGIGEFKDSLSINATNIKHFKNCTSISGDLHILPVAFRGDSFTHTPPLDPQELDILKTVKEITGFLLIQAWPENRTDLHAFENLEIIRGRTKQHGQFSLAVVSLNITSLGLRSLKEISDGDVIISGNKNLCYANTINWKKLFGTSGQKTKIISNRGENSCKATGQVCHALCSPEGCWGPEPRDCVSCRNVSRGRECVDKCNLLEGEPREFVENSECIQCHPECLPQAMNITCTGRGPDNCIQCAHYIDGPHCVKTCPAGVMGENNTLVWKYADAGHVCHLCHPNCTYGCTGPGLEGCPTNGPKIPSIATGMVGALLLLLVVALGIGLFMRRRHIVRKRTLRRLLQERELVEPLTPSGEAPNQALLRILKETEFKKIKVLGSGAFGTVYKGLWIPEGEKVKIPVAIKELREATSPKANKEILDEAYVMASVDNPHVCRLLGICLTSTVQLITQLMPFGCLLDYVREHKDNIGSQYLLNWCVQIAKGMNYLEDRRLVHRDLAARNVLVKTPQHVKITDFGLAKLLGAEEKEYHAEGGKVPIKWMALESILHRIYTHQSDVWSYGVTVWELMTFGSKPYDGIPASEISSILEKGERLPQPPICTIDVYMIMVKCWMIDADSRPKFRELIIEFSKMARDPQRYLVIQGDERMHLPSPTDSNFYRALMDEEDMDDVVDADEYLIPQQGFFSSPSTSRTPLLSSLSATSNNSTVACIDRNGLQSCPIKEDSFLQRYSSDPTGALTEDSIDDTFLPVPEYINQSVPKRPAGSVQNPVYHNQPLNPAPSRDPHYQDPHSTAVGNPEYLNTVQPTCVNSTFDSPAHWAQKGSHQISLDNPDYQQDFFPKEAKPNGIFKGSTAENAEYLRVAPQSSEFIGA
Series [3] concerns the target T1, Epidermal growth factor receptor. Put plainly: Inhibit of phosphorylation of a tyrosine/glutamic acid copolymer by epidermal growth factor receptor prepared from human A431 carcinoma cell vesicles by immunoaffinity chromatography.

Values after ≈ are worked out from the molar mass of the structure shown.

In series [1], `Cc1cccc(Nc2ncnc3cnc(NCCN4CCOCC4)cc23)c1` registered an S of over 40 mM.
Broadly, the IC50 is the concentration that gives 50% inhibition. Read a high IC50 as lower potency. For the compound `Brc1cccc(Nc2ncnc3cnc(NCCCN4CCOCC4)cc23)c1`, the IC50 in series [2] came to 5.9 nM; in series [3], 1 nM. The compound further had a S in series [1] of over 44 mM.
`Brc1cccc(Nc2ncnc3cnc(NCc4cccnc4)cc23)c1`: the 50% inhibitory concentration (IC50) is 13 nM in series [2] and 1.5 nM in series [3]. Further, the solubility in series [1] is 12 mM (≈ 4890 µg/mL).
For `Brc1cccc(Nc2ncnc3cnc(NCCc4c[nH]cn4)cc23)c1`, in that order: 6.3 nM, 0.78 nM and 15 mM (≈ 6150 µg/mL).
For `CNc1cc2c(Nc3cccc(Cl)c3)ncnc2cn1`, in series [3], half-maximal inhibition (IC50) required 0.19 nM.
With `Cc1cccc(Nc2ncnc3cnc(N)cc23)c1`, in series [1], the solubility amounted to 0.4 mM (≈ 101 µg/mL). Besides, inhibition in series [3] was half-maximal at 3.1 nM (IC50).
Regarding `Brc1cccc(Nc2ncnc3cnc(NCCc4ccccn4)cc23)c1`, the values for the IC50 in series [2] and in series [3] were 8.1 nM and 1.2 nM, respectively. For the same compound, in series [1], the solubility was 17 mM (≈ 7160 µg/mL).
Take `CN(CCO)c1cc2c(Nc3cccc(Br)c3)ncnc2cn1`: in series [1], the solubility stood at 0.11 mM (≈ 41.2 µg/mL). This compound gave an IC50 in series [3] of 0.22 nM.
Compound `CNc1cc2c(Nc3cccc(C(F)(F)F)c3)ncnc2cn1` gave an IC50 in series [3] of 1.1 nM.
`CN(C)CCN(C)c1cc2c(Nc3cccc(Br)c3)ncnc2cn1`: the solubility in series [1] worked out at 39 mM (≈ 15700 µg/mL).
Consider `Cc1nc(Nc2cccc(Br)c2)c2cc(NCCN3CCOCC3)ncc2n1`, for which the IC50 in series [3] turned out to be 117 nM.
For the compound `CN1CCN(c2cc3c(Nc4cccc(Br)c4)ncnc3cn2)CC1`, the 50% inhibitory concentration (IC50) in series [2] was 102 nM; in series [3] it was 6.4 nM. Moreover, in series [1], the solubility is 2.5 mM (≈ 998 µg/mL).
Consider `O=C(O)CNc1cc2c(Nc3cccc(Br)c3)ncnc2cn1`, for which, in series [1], the solubility was found to be 5 mM (≈ 1870 µg/mL). The IC50 in series [3] worked out at 0.28 nM.
Take `CN1CCN(NCCCNc2cc3c(Nc4cccc(Br)c4)ncnc3cn2)CC1`: the solubility in series [1] came out at 32 mM (≈ 15100 µg/mL).
On to `Brc1cccc(Nc2ncnc3cnc(NCCCn4ccnc4)cc23)c1`, for which the IC50 in series [2] was found to be 9.1 nM; in series [3], 1.7 nM. The solubility in series [1] was 23 mM (≈ 9760 µg/mL).
With `Cc1cccc(Nc2ncnc3cnc(N(C)C)cc23)c1`, the solubility in series [1] amounted to 0.02 mM (≈ 5.59 µg/mL). Moreover, half-maximal inhibition in series [3] (IC50) was put at 2.8 nM.
As for `O=C(O)CCNc1cc2c(Nc3cccc(Br)c3)ncnc2cn1`, the IC50 amounted to 449 nM in series [2] and 0.27 nM in series [3]. Also, the solubility in series [1] came out at 38 mM (≈ 14800 µg/mL).
On to `CN(CCO)CCNc1cc2c(Nc3cccc(Br)c3)ncnc2cn1`, for which the values for the IC50 in series [2] and in series [3] were 27 nM and 1.7 nM, respectively. In series [1], this compound had an S of over 45 mM.
In the case of `CN(CC(O)CO)c1cc2c(Nc3cccc(Br)c3)ncnc2cn1` (stereo not drawn), in series [1], the solubility came out at 0.18 mM (≈ 72.8 µg/mL). 0.56 nM corresponded to half-maximal inhibition in series [3] (IC50).
As for `OCCN(CCO)CCNc1cc2c(Nc3cccc(Br)c3)ncnc2cn1`, the IC50 in series [2] was 71 nM; in series [3], 0.93 nM. Moreover, the solubility in series [1] stood at 36 mM (≈ 16100 µg/mL).
As for `CN(CC(=O)O)c1cc2c(Nc3cccc(Br)c3)ncnc2cn1`, the solubility in series [1] came to 44 mM (≈ 17100 µg/mL). For the same compound, in series [3], the IC50 was 0.44 nM.
The compound `Cc1cccc(Nc2ncnc3cnc(NCCc4c[nH]cn4)cc23)c1` came in with a S in series [1] of over 30 mM. The midpoint of inhibition in series [3], the IC50, lay at 1.3 nM.
For `CN(C)CCCNc1cc2c(Nc3cccc(Br)c3)ncnc2cn1`, the IC50 in series [2] worked out at 16 nM; in series [3], 1.2 nM. Further, the solubility in series [1] is 30 mM (≈ 12000 µg/mL).
Regarding `CN(C)CCCCNc1cc2c(Nc3cccc(Br)c3)ncnc2cn1`, the IC50 in series [2] worked out at 19 nM; in series [3], 1.8 nM. Besides, the solubility in series [1] amounted to 38 mM (≈ 15800 µg/mL).
In the case of `Cc1cccc(Nc2ncnc3cnc(NCCCN4CCOCC4)cc23)c1`, in series [1], the S is over 35 mM. The IC50 in series [3] is 1.8 nM.
`OCC(O)CNc1cc2c(Nc3cccc(Br)c3)ncnc2cn1` (stereo not drawn): in series [1], the solubility was determined as 0.21 mM (≈ 82 µg/mL). For the same compound, half-maximal inhibition in series [3] (IC50) required 0.18 nM.
Regarding `CN(C)c1cc2c(Nc3cccc(Br)c3)ncnc2cn1`, the solubility in series [1] stood at 0.06 mM (≈ 20.7 µg/mL).
In the case of `OCCNc1cc2c(Nc3cccc(Br)c3)ncnc2cn1`, in series [1], the solubility came to 0.02 mM (≈ 7.2 µg/mL). This compound had an IC50 in series [3] of 0.19 nM.
For the compound `OCCN(CCO)CCCNc1cc2c(Nc3cccc(Br)c3)ncnc2cn1`, the IC50 in series [2] stood at 230 nM; in series [3], 0.35 nM. Further, the solubility in series [1] is 20 mM (≈ 9230 µg/mL).
